Data on 1 compound can be found in US20080146540A1, “Methods of diagnosis and treatment for asthma, allergic rhinitis and other respiratory diseases based on haplotype association” (priority 2003, published 2008).

This assay has as its system asthma patients. Briefly: Phase II clinical study CEP-1347-201: methacholine challenge test (MCT; PC20 ANCOVA, survival analysis, model based EC50 analysis, AUC analysis). It is filed as in vivo, human. As to conditions: for Percent of subjects with an increase in the AUC for the methacholine dose-response curve (AUCPost > AUCPre): after 8 weeks, placebo 33%; for median event-causing (20% drop in FEV1) methacholine concentration, PC20 survival analysis at week 8: placebo 3.0, log-rank p=0.02; for % Shift in EC50 (methacholine): model based analysis, vs placebo EC50; for Patients with Censored PC20 / Patients with PC20: week 8; for PC20 Change from Baseline at Week 8, LS Mean: ANCOVA, actual + imputed PC20. As to the method:
A methacholine challenge test (MCT) was conducted at baseline and at the end of the 8-week treatment period in a subset of patients. The MCT test was not undertaken if, in the opinion of the investigator, MCT administration was contraindicated based on the patient's condition or the patient declined to participate. Patients that underwent a MCT were exposed to escalating doses of methacholine (methacholine administration typically leads to an acute decrease in lung function) and changes in lung function were measured by FEV1. The dose of methacholine was escalated until FEV1 decreased by 20% or the maximum MCT dose was reached. The dose of methacholine that produced a 20% decrease in FEV1 (PC20) was recorded. The change in FEV1 associated with each administration/dose of methacholine was recorded
The methacholine challenge test was conducted in a subset of patients at baseline and at the end of the 8-week treatment period.
In these cases the highest methacholine dose the patient received was assumed to be the PC20.
A 20% drop in FEV1 (PC20) was considered to be an event observation and the methacholine dose was treated as the “survival time” variable in the survival analysis. […] A Kaplan-Meier's product-limit estimate of the survival curve was generated; treatment effects were compared using a standard log-rank test; and baseline MCT information was ignored.
To make use of all methacholine-FEVI data a post hoc, model based analysis (i.e., nonlinear mixed effects model) was undertaken. The goal of the model based analysis was to estimate the magnitude of CEP-1347 effect on the patient's sensitivity to methacholine.
• the approach is more complex and less widely accepted compared to ANCOVA or survival analysis approaches • assumptions regarding the model structure are necessary • the suppressive effect of methacholine on lung functions was assumed to follow a classic inhibitory EMAX model, • the attenuating effect of CEP-1347 was assumed to shift an individual's EC50 or sensitivity to methacholine.
The model based analysis utilized 2202 FEV1 measurements following methacholine dosing. MCT data were available from 123 patients corresponding to approximately 17.9 observations per patient.
FEV1=E0*(1−EMAX*MET^γ/(EC50^γ+MET^γ))+ε(1) (Eq. 1)
Where, E0 was the FEV1 associated with a methacholine dose of 0, MET was the methacholine dose, EMAX was the maximum fractional suppression of FEV1 by methacholine, EC50 was the methacholine concentration at which 50% of maximal suppression was achieved, γ was the Hill coefficient, and ε (1) was the residual error term.
Inter-subject random effects were included on EMAX and EC50. […] Subsequently, the effect of CEP-1347 on the methacholine dose-response was added to the model. […] In other words, this model based approach asks the questions “Does CEP-1347 cause a patient to be less sensitive to methacholine (i.e., increase the individual patient's methacholine EC50)”. For the purposes of this model based analysis equation 2 describes the implementation of the CEP-1347 effect on the attenuation of the methacholine dose-response relationship:
Model selection was done on the basis of the log likelihood criterion (p<0.05) and visual inspection of goodness-of-fit plots. The difference in −2 times the log of the likelihood (−2LL) between a full and reduced model is asymptotically χ^2 distributed with degrees of freedom equal to the difference in number of parameters between the two models.

As to `CCSCc1ccc2c(c1)c1c3c(c4c5cc(CSCC)ccc5n5c4c1n2C1CC(O)(C(=O)OC)C5(C)O1)CNC3=O` (centres unmarked) [CEP-1347], the “Percent of subjects with an increase in the AUC for the methacholine dose-response curve (AUCPost > AUCPre)” value is, setting by setting: (10 mg BID, Cochran-Mantel-Haenzel p = 0.075, logistic regression p = 0.039) 55%; (25 mg BID) 58%; (50 mg BID) 59%. The “median event-causing (20% drop in FEV1) methacholine concentration, PC20 survival analysis at week 8” value (10 mg BID, 95% confidence interval (0.85,+∞)) stood at 3.7 µg/mL; the “median event-causing (20% drop in FEV1) methacholine concentration, PC20 survival analysis at week 8” value (25 mg BID, 95% confidence interval (1.87,+∞)) was 6.8 µg/mL; the “median event-causing (20% drop in FEV1) methacholine concentration, PC20 survival analysis at week 8” value (50 mg BID, 95% confidence interval (0.6, 3.0)) is 0.85 µg/mL. In addition, the “% Shift in EC50 (methacholine)” value (10 mg BID) is −40%, the “% Shift in EC50 (methacholine)” value (25 mg BID) came out at 21% and the “% Shift in EC50 (methacholine)” value (50 mg BID) is listed as 43%. For the same compound, the “Patients with Censored PC20” value (10 mg BID) is 11 (39%) n (% of treatment group), the “Patients with Censored PC20” value (25 mg BID) is 8 (47%) n (% of treatment group) and the “Patients with Censored PC20” value (50 mg BID) is on record as 3 (14%) n (% of treatment group). In addition, the “Patients with PC20” value reads like this: (10 mg BID) 17 (61%) n (% of treatment group); (25 mg BID) 9 (53%) n (% of treatment group); (50 mg BID) 18 (86%) n (% of treatment group). For the same compound, the “PC20 change from baseline at week 8 (ANCOVA)” value runs as follows: (50 mg BID group) “seemingly worsened”; (all CEP-1347 groups vs placebo, PC20 imputed as highest methacholine dose where no 20% FEV1 decline) “No clinical or statistically significant improvement”. In addition, the “increase of the methacholine EC50 (shift of methacholine-FEV1 dose-response curve to the right), model based analysis” value (50 mg BID, nonlinear mixed effects model, effect size estimates imprecise) is reported as 43%. The “PC20 Change from Baseline at Week 8, LS Mean” value was 1.00 (CEP-1347 10 mg BID, p .66); 1.84 (CEP-1347 25 mg BID, p .77); −1.18 (CEP-1347 50 mg BID, p .02). The “Summary of MCT analyses: ANCOVA, Results and Comments” value (PC20 at baseline and week 8) is given as “Not significant”. Besides, where the note is “all doses, full vs reduced model p=0.02”, the “effect on methacholine effects on FEV1, model based analysis” value was “dose related attenuation”.
